Assay results as given in ChEMBL document CHEMBL2074009, “Possible involvement of P-glycoprotein in biliary excretion of CPT-11 in rats” (Drug Metab Dispos, 1999).

Target: Multidrug resistance protein 1a (Rattus norvegicus) (UniProt Q6PSM0)
Assay: TP_TRANSPORTER: uptake (high affinity, inhibited by PSC-833, Verapamil and Cyclosporin A) in bile canalicular membrane vesicles from SD rat
Format: functional, cell membranes
Details: Sprague-Dawley, Bile canalicular membrane vesicle

Multidrug resistance protein 1a (Rattus norvegicus), sequence (Q6PSM0 as listed by the source): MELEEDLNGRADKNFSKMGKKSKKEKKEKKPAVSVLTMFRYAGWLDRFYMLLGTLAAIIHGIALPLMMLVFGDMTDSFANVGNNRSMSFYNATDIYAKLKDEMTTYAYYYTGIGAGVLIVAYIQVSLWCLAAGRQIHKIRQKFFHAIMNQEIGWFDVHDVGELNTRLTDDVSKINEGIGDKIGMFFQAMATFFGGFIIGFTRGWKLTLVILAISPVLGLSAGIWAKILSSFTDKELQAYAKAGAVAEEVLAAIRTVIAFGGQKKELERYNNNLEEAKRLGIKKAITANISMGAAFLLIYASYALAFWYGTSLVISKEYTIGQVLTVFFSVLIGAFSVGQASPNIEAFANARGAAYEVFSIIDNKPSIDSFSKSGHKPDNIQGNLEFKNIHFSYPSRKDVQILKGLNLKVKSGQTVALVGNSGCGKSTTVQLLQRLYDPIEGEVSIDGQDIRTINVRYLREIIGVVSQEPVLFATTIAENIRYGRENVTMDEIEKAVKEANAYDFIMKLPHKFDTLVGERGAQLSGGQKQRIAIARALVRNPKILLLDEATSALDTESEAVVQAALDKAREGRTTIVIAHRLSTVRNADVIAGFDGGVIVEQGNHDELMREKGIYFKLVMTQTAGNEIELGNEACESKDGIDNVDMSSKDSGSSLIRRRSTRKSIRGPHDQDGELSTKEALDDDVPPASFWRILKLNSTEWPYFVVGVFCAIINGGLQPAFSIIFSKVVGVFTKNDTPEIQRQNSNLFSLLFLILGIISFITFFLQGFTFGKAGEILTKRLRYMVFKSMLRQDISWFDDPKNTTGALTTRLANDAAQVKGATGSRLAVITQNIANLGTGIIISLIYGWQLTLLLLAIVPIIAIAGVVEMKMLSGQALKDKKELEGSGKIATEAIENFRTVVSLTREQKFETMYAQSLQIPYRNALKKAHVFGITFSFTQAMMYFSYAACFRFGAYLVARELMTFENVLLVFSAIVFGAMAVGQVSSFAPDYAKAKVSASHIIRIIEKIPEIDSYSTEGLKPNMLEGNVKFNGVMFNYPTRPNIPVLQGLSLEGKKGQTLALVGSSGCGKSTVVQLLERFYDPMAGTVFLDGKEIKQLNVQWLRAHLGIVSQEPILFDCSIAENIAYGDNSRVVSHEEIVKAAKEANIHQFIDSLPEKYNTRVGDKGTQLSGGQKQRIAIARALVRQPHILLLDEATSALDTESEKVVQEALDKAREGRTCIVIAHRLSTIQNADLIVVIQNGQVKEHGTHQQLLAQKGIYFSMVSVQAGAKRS

**Q.** For `CCc1c2c(nc3ccc(OC(=O)N4CCC(N5CCCCC5)CC4)cc13)-c1cc([C@@](O)(CC)C(=O)O)c(CO)c(=O)n1C2`, which Activity is on record?
**A.** substrate [+]
